The record followed here is US7612081B2 (priority 2003, dated 2009).

Read-outs that look alike come from different tables or passages of the source.

The subject of data set [1] is Saccharomyces cerevisiae yeast strain EKY3 (top1Δ), YCpGAL1-hTOP1G363C. Nature of the data set: Yeast in-vivo spot test, G363C mutant. It is filed as cell-based. Conditions: 45 μM. From the text:
(§1) To identify camptothecin derivatives that overcome the resistance to camptothecin induced by point mutations on topisomerase I DNA in the Saccharomyces cerevisiae yeast model, an in-vivo and an in-vitro system were used in parallel.
(§2) A number of mutations are present close to the active site of the enzyme (tyrosine 723) and others around position 363 which corresponds to a very well conserved region.
(§3) Before effecting the transformation of the yeasts, the yeasts were unfrozen and plated with a sterile bent glass rod in 90-mm plates containing sterile solid YPDa medium (10 g of yeast extract, 20 g of peptone, 20 g of dextrose, 0.7 g of adenine, 20 g of glucose, 20 g of agar per liter). Colonies formed after 48-72 hours in an incubator at 30° C.
(§4) One day before the transformation, a single yeast colony sample was taken with a sterile Gilson tip and inoculated in 5 ml of sterile liquid YPDA medium (the above-mentioned medium without agar). […]
(§5) Before treating the yeasts with the camptothecin derivatives (in-vivo spot test), the transformed colonies were inoculated with a Gilson tip in 5 ml sterile liquid CM medium. […] On the day after, the optical density of the colonies was measured at 600 nm and a dilution of the colonies was performed in order to obtain an optical density of 0.3. […] The colonies were incubated at 30° C. for 48-72 hours and analysed macroscopically.

Data set [2] has as its system Saccharomyces cerevisiae yeast strain EKY3 (top1Δ), YCpGAL-1hTOP1A653P. Nature of the data set: Yeast in-vivo spot test, A653P mutant. It is filed as cell-based. Conditions: 45 μM.
Excerpt: as §1, §2, §3, §4, §5

In data set [3] the test system is NCl—H460 non-microcytoma lung cancer cells. Nature of the data set: Cytotoxic activity on NCl—H460 cells (sulforodamine B). The conditions noted are these: for IC50: read-out: IC50 (product concentration that inhibits cell survival by 50%), 2 hours exposure, 72 hours recovery, mean ± SD.
Description: NCl—H460 non-microcytoma lung cancer cells were kept in RPMI 1640 culture medium containing 10% FCS and 1% glutamine. The cytotoxicity test to analyse the activity of the molecules was performed as follows. The cells were seeded in a volume of 250 μl in 96-well plates and incubated for 2 hours at 37° C. with scalar concentrations of the products in a humidified atmosphere containing 5% CO2. At the end of the incubation, the molecules were removed by overturning the plates and adding sterile buffered saline solution (PBS) three times. The RPMI 1640 culture medium containing 10% FCS (200 μl) was added to the wells and the plates were incubated for another 72 hours. At the end of the incubation, the plates were overturned again and dried on paper, before adding 200 μl of PBS and 50 μl of 80% TCA. The plates were incubated again in ice for at least 1 hour. The TCA was removed by overturning the plates and the plates were first dried on paper and then washed three times by immersion in distilled water and overturning. The plates were dried first on paper and then in a thermostatically regulated incubator at 60° C. for 10 min. 200 μl of 0.4% sulforodamine B in 1% acetic acid were added to all wells. The plates were incubated at room temperature for another 30 min. The sulforodamine B was removed by overturning, the plates were washed by immersion in 1% acetic acid three times and then dried first on blotting paper and then in the thermostat at 60° C. for 10 min. Lastly, 200 μl of Tris base 10 mM were added to all wells and the plates were subjected to stirring for at least 20 min. The optical density was measured with a Multiskan spectrophotometer at 540 nm.
The test system of data set [4] is Saccharomyces cerevisiae yeast strain EKY3 (top1Δ), Topoisomerase I wild-type (TOP1). Nature of the data set: Yeast in-vivo spot test, wild-type TOP1. It counts as cell-based. Conditions: 45 μM.
Description: One day before the transformation, a single yeast colony sample was taken with a sterile Gilson tip and inoculated in 5 ml of sterile liquid YPDA medium (the above-mentioned medium without agar). The colony was grown overnight under stirring at 30° C. […]
For data set [5], the system named is MKN-28 human gastric carcinoma. Conditions: for LCK (1000 mm^3) (log cell kill): q4dx4; for TVI % (tumor volume inhibition): q4dx4, 20 days after last treatment. The method, then:
Tumor fragments were inoculated on both flanks at day 0. Treatment started when tumors were just palpable. The molecule was given by oral route and intravenously according to the schedule q4d×4. During the treatment, animals were inspected every day for mortality. Physical appearance, behavior and general and local clinical signs of the mice will be observed daily. Any deviation from normality was recorded. All animals were weighed during the whole treatment period, in order to calculate the percent body weight loss due to the treatment.
Tumor volume inhibition % in treated over control tumors was evaluated 20 days after last treatment. To determine the antitumor activity of the drug, tumor diameters was measured biweekly with a Vernier caliper. The formula TV (mm^3)=[length (mm)×width (mm)^2]/2 was used, where the width and the length are the shortest and the longest diameters of each tumor, respectively.
When tumors reached a weight of about 2 g, the mice were sacrificed by cervical dislocation. LCK (log cell kill) as index of efficacy was calculated to evaluate the persistence of the effect of the molecule at the end of the treatment.

The subject of data set [6] is Saccharomyces cerevisiae yeast strain EKY3 (top1Δ), YCpGAL1-hTOP1K720E. Nature of the data set: Yeast in-vivo spot test, K720E mutant. It is filed as cell-based. Conditions: 45 μM.
Excerpt: as §1, §2, §3, §4, §5

As for “7-[(N′, N″-tert-butoxycarbonyl)-spermidine-imino-methyl]-20S-camptothecin [ST2598]”, the “Phenotype of mutated enzyme G363C towards the derivative” value in data set [1] is “resistant”. Moreover, the “Phenotype of mutated enzyme A653P towards the derivative” value in data set [2] is “resistant”. In data set [3], the “Cytotoxicity on the lung cancer line (in words)” value was “very potent cytotoxicity” and the IC50 was found to be 15 ± 2 nM. Besides, the “Phenotype of Topoisomerase I wild-type towards the derivative” value in data set [4] was “sensitivity”.

As for “7-[(N′,N″,N′″-tert-butoxycarbonyl)-spermine-imino-methyl]-20S-camptothecin [ST2544]”, in data set [1], the “Phenotype of mutated enzyme G363C towards the derivative” value is “resistant”. Besides, the “LCK (1000 mm^3) (log cell kill)” value came out at 0.2 in data set [5] (iv, 1 mg/kg); 0.2 in data set [5] (iv, 2 mg/kg); 0.8 in data set [5] (iv, 4 mg/kg); 0.1 in data set [5] (p.o., 1 mg/kg); 0.5 in data set [5] (p.o., 2 mg/kg). In addition, the “TVI % (tumor volume inhibition)” value in data set [5] (iv, 1 mg/kg) came out at 34%; in data set [5] (iv, 2 mg/kg), 36%; in data set [5] (iv, 4 mg/kg), 66%; in data set [5] (p.o., 1 mg/kg) it was 28%; in data set [5] (p.o., 2 mg/kg, 2 mg/kg), 62%; in data set [5] (p.o., 4 mg/kg, 4 mg/kg) it was 72%. In addition, in data set [6], the “Phenotype of K720E mutant towards the derivative” value was “sensitivity”. The “Phenotype of mutated enzyme A653P towards the derivative” value in data set [2] is reported as “resistant”. Further, the IC50 in data set [3] is 12.9 ± 1.8 nM. Further, the “Phenotype of Topoisomerase I wild-type towards the derivative” value in data set [4] is given as “sensitivity”.

As to “7-[(N′,N″-Di-benzyloxycarbonyl)-spermidineiminomethyl]-20S-camptothecin [ST2729]”, in data set [3], the IC50 is 34 ± 7 nM.

On to “7-[N-(N′-tert-butoxcarbonyl)-putrescinimino-methyl]-20S-camptothecin [ST2615]”, for which the IC50 in data set [3] was above 200 nM.

In the case of `CCC1(O)C(=O)OCc2c1cc1n(c2=O)Cc2c-1nc1ccccc1c2C=NOCCCNC(=O)OC(C)(C)C` (stereo not drawn) [ST2664, 7-[3-(N-tert-butoxycarbonyl)-amino-1-propoxyiminomethyl]20S-camptothecin], the IC50 in data set [3] is above 200 nM.

Consider `CC[C@@]1(O)C(=O)OCc2c1cc1n(c2=O)Cc2c-1nc1ccccc1c2C=NCC1CCN(C(=O)OC(C)(C)C)CC1` [ST2665], for which the IC50 in data set [3] is above 200 nM.

Take `CCC1(O)C(=O)OCc2c1cc1n(c2=O)Cc2c-1nc1ccccc1c2C=NOCCCN(CCCCNC(=O)OC(C)(C)C)C(=O)OC(C)(C)C` (centres unmarked) [ST2872]: the IC50 in data set [3] is above 200 nM.
